Measurements reported in patent US20010051374A1, “HIGH […] MO[…]” (priority 1997, published 2001).

System: 293 cells
Assay: Coamatic Factor VIII assay of supernatants of 293 cells infected with rAAV
Assay type: cell-based, human
Design: dose or concentration left out as unconfirmed
Conditions: etoposide added to medium of cells co-infected with rAAV-80L and rAAV-90H
Experimental: The heavy and light chain constructs, pKm201-80L and pKm201-90H, were packaged following standard procedures for the production of rAAV (Zhou et al. (1994) J. Exp. Med. 179:1867-1875). rAAV was purified as described (Wang et al. (1995) Proc. Natl. Acad. Sci. USA 92:12416-12420) and used to infect 293 cells plated in 6-well plates. Supernatants of infected cells were collected 48 h after infection and assayed for biologically active factor VIII by Coamatic Factor VIII (KabiVitrum, Stockholm), following the manufacturer's instructions. Normal human plasma (George King Bio-Medical, Inc., Overland Park, Kans.) was used to generate a standard curve. Cells were infected at a multiplicity of infection (MOI) of 6000 rAAV particles per cell. The experiment was done both with and without the addition of etoposide ([…]) to the medium. […] The amount of factor VIII was increased in the presence of etoposide.

**Q.** With COc1cc([C@@H]2c3cc4c(cc3[C@@H](O[C@@H]3O[C@@H]5CO[C@@H](C)O[C@H]5[C@H](O)[C@H]3O)[C@H]3COC(=O)[C@H]23)OCO4)cc(OC)c1O [etoposide] as the compound, how does the “amount of factor VIII” value read?
**A.** increased
